One experiment deals with P-4E-BP1 (T37/46). The experiment is described as follows: Cell based AlphaLISA assay, inhibition of P-4E-BP1 (T37/46) in MDA-MB-468 cells. Particulars: Homo sapiens, 4 h, 0.017-1,000 nM, two to four hours at 37° C., AlphaLisa SureFire Ultra, read-out: pIC50 for Inhibition of mTORC1 and mTORC2 Substrate Phosphorylation, p-4E-BP1-(T37/46) (converted). The protocol: (§1) Cell Based AlphaLISA Assays For Determining IC50 For Inhibition of P-Akt (S473), P-4E-BP1 (T37/46), and P-P70S6K (T389) in MDA-MB-468 Cells
(§2) mTOR Kinase Cellular Assay
(§3) To measure functional activity of mTORC1 and mTORC2 in cells the phosphorylation of 4EBP1 (Thr37/46) and P70S6K (Thr389), and AKT1/2/3 (Ser473) was monitored using AlphaLisa SureFire Ultra Kits (Perkin Elmer). […] Incubations are terminated by removal of the assay buffer and addition of lysis buffer provided with the assay kit. Samples are processed according to the manufacturer's instructions. The Alpha signal from the respective phosphoproteins is measured in duplicate using a microplate reader (Envision, Perkin-Elmer or Spectramax M5, Molecular Devices). Inhibitor concentration response curves are analyzed using normalized IC50 regression curve fitting with control based normalization.
For orientation: Bead proximity is the source of the signal in Alpha formats.

For a further experiment, the system named is P-P70S6K (T389). The experiment is described as follows: Cell based AlphaLISA assay, inhibition of P-P70S6K (T389) in MDA-MB-468 cells. The note with it: Homo sapiens, 4 h, 0.017-1,000 nM, two to four hours at 37° C., AlphaLisa SureFire Ultra, read-out: pIC50 for Inhibition of mTORC1 and mTORC2 Substrate Phosphorylation, p-P70S6K-(T389) (converted). The method, then: as §1, §2, §3

The test system of the next experiment is P-Akt (S473). The experiment is described as follows: Cell based AlphaLISA assay, inhibition of P-Akt (S473) in MDA-MB-468 cells. The note with it: Homo sapiens, 4 h, 0.017-1,000 nM, two to four hours at 37° C., AlphaLisa SureFire Ultra, read-out: pIC50 for Inhibition of mTORC1 and mTORC2 Substrate Phosphorylation, p-AKT1/2/3-(S473) (converted). The protocol: as §1, §2, §3

Regarding `CO[C@H]1C[C@@H]2CC[C@@H](C)[C@@](O)(O2)C(=O)C(=O)N2CCCC[C@H]2C(=O)O[C@H]([C@H](C)C[C@@H]2CC[C@@H](O)[C@H](OC)C2)C[C@@H](O)[C@H](C)/C=C(\C)[C@@H](O)[C@@H](OC)C(=NOCC(=O)NCCOCCOCCOCCOCCOCCOCCOCCOCCC(=O)NCCCCn2nc(-c3ccc4oc(N)nc4c3)c3c(N)ncnc32)[C@H](C)C[C@H](C)/C=C/C=C/C=C/1C` [Example 1], the values for the IC50 in the experiment on P-4E-BP1 (T37/46), in the experiment with P-P70S6K (T389) and with P-Akt (S473) were 3.16 to 31.6 nM, 1 to 10 nM and 31.6 to 1000 nM, respectively.

Turning to `CO[C@H]1C[C@@H]2CC[C@@H](C)[C@@](O)(O2)C(=O)C(=O)N2CCCC[C@H]2C(=O)O[C@H]([C@H](C)C[C@@H]2CC[C@@H](O)[C@H](OC)C2)C[C@@H](O)[C@H](C)/C=C(\C)[C@@H](O)[C@@H](OC)C(=NOCC(=O)NCCOCCOCCOCCOCCOCCOCCC(=O)NCCCCn2nc(-c3ccc4oc(N)nc4c3)c3c(N)ncnc32)[C@H](C)C[C@H](C)/C=C/C=C/C=C/1C` [Example 2], the values for the IC50 in the experiment with P-4E-BP1 (T37/46), with P-P70S6K (T389) and in the experiment on P-Akt (S473) were 3.16 to 31.6 nM, less than 1 nM and 31.6 to 1000 nM, respectively.

As to `CO[C@H]1C[C@@H]2CC[C@@H](C)[C@@](O)(O2)C(=O)C(=O)N2CCCC[C@H]2C(=O)O[C@H]([C@H](C)C[C@@H]2CC[C@@H](O)[C@H](OC)C2)C[C@@H](O)[C@H](C)/C=C(\C)[C@@H](O)[C@@H](OC)/C(=N/OCC(=O)NCCOCCOCCOCCOCCOCCOCCC(=O)NCCCCn2nc(-c3ccc4oc(N)nc4c3)c3c(N)ncnc32)[C@H](C)C[C@H](C)/C=C/C=C/C=C/1C` [Example 3], the IC50 is 3.16 to 31.6 nM in the experiment on P-4E-BP1 (T37/46), less than 1 nM in the experiment on P-P70S6K (T389) and 31.6 to 1000 nM in the experiment on P-Akt (S473).

As to `CO[C@H]1C[C@@H]2CC[C@@H](C)[C@@](O)(O2)C(=O)C(=O)N2CCCC[C@H]2C(=O)O[C@H]([C@H](C)C[C@@H]2CC[C@@H](O)[C@H](OC)C2)C[C@@H](O)[C@H](C)/C=C(\C)[C@@H](O)[C@@H](OC)C(=NOCC(=O)NCCOCCOCCOCCOCCOCCOCCOCCOCCC(=O)N2CCc3cc(Cn4nc(-c5ccc6oc(N)nc6c5)c5c(N)ncnc54)ccc3C2)[C@H](C)C[C@H](C)/C=C/C=C/C=C/1C` [Example 4], the IC50 with P-4E-BP1 (T37/46) was 3.16 to 31.6 nM; with P-P70S6K (T389) it was less than 1 nM; in the experiment on P-Akt (S473), 31.6 to 1000 nM.

`CO[C@H]1C[C@@H]2CC[C@@H](C)[C@@](O)(O2)C(=O)C(=O)N2CCCC[C@H]2C(=O)O[C@H]([C@H](C)C[C@@H]2CC[C@@H](O)[C@H](OC)C2)C[C@@H](O)[C@H](C)/C=C(\C)[C@@H](O)[C@@H](OC)C(=NOCC(=O)NCCOCCOCCOCCOCCOCCOCCC(=O)N2CCc3cc(Cn4nc(-c5ccc6oc(N)nc6c5)c5c(N)ncnc54)ccc3C2)[C@H](C)C[C@H](C)/C=C/C=C/C=C/1C` [Example 5]: the IC50 is less than 3.16 nM in the experiment with P-4E-BP1 (T37/46), less than 1 nM in the experiment with P-P70S6K (T389) and 31.6 to 1000 nM in the experiment on P-Akt (S473).

`CO[C@H]1C[C@@H]2CC[C@@H](C)[C@@](O)(O2)C(=O)C(=O)N2CCCC[C@H]2C(=O)O[C@H]([C@H](C)C[C@@H]2CC[C@@H](O)[C@H](OC)C2)C[C@@H](O)[C@H](C)/C=C(\C)[C@@H](O)[C@@H](OC)C(=NOCC(=O)NCCOCCOCCOCCOCCOCCOCCOCCOCCC(=O)NCCCCn2nc(-c3cnc4[nH]ccc4c3)c3c(N)ncnc32)[C@H](C)C[C@H](C)/C=C/C=C/C=C/1C` [Example 6]: the values for the IC50 in the experiment with P-4E-BP1 (T37/46), with P-P70S6K (T389) and in the experiment with P-Akt (S473) were 3.16 to 31.6 nM, 1 to 10 nM and greater than 1000 nM, respectively.

As to `CO[C@H]1C[C@@H]2CC[C@@H](C)[C@@](O)(O2)C(=O)C(=O)N2CCCC[C@H]2C(=O)O[C@H]([C@H](C)C[C@@H]2CC[C@@H](O)[C@H](OC)C2)C[C@@H](O)[C@H](C)/C=C(\C)[C@@H](O)[C@@H](OC)C(=NOCC(=O)NCCOCCOCCOCCOCCOCCOCCC(=O)NCCCCn2nc(-c3cnc4[nH]ccc4c3)c3c(N)ncnc32)[C@H](C)C[C@H](C)/C=C/C=C/C=C/1C` [Example 7], the IC50 is 3.16 to 31.6 nM with P-4E-BP1 (T37/46), less than 1 nM in the experiment on P-P70S6K (T389) and greater than 1000 nM in the experiment with P-Akt (S473).

As to `CO[C@H]1C[C@@H]2CC[C@@H](C)[C@@](O)(O2)C(=O)C(=O)N2CCCC[C@H]2C(=O)O[C@H]([C@H](C)C[C@@H]2CC[C@@H](O)[C@H](OC)C2)C[C@@H](OC)[C@H](C)/C=C(\C)[C@@H](O)[C@@H](OC)C(=NOCC(=O)NCCOCCOCCOCCOCCOCCOCCOCCOCCC(=O)NCCCCn2nc(-c3cnc4[nH]ccc4c3)c3c(N)ncnc32)[C@H](C)C[C@H](C)/C=C/C=C/C=C/1C` [Example 8], the IC50 in the experiment with P-4E-BP1 (T37/46) was 3.16 to 31.6 nM; in the experiment on P-P70S6K (T389), less than 1 nM; in the experiment on P-Akt (S473) it was greater than 1000 nM.

On to `CO[C@H]1C[C@@H]2CC[C@@H](C)[C@@](O)(O2)C(=O)C(=O)N2CCCC[C@H]2C(=O)O[C@H]([C@H](C)C[C@@H]2CC[C@@H](O)[C@H](OC)C2)C[C@@H](O)[C@H](C)/C=C(\C)[C@@H](O)[C@@H](OC)C(=NOCC(=O)NCCOCCOCCOCCOCCOCCOCCOCCOCCC(=O)N2CCc3cc(Cn4nc(-c5cnc6[nH]ccc6c5)c5c(N)ncnc54)ccc3C2)[C@H](C)C[C@H](C)/C=C/C=C/C=C/1C` [Example 9], for which the IC50 is 3.16 to 31.6 nM in the experiment with P-4E-BP1 (T37/46), 1 to 10 nM in the experiment on P-P70S6K (T389) and greater than 1000 nM in the experiment on P-Akt (S473).

Consider `CO[C@H]1C[C@@H]2CC[C@@H](C)[C@@](O)(O2)C(=O)C(=O)N2CCCC[C@H]2C(=O)O[C@H]([C@H](C)C[C@@H]2CC[C@@H](O)[C@H](OC)C2)C[C@@H](OC)[C@H](C)/C=C(\C)[C@@H](O)[C@@H](OC)C(=NOCC(=O)NCCOCCOCCOCCOCCOCCOCCOCCOCCC(=O)N2CCc3cc(Cn4nc(-c5cnc6[nH]ccc6c5)c5c(N)ncnc54)ccc3C2)[C@H](C)C[C@H](C)/C=C/C=C/C=C/1C` [Example 11], for which the IC50 was 3.16 to 31.6 nM in the experiment with P-4E-BP1 (T37/46), 1 to 10 nM with P-P70S6K (T389) and greater than 1000 nM with P-Akt (S473).

`COc1ccc(-c2ccc3ncc4c(c3c2)n(-c2ccc(N3CCN(C(=O)CCOCCOCCOCCOCCOCCOCCNC(=O)CON=C5[C@H](C)C[C@H](C)/C=C/C=C/C=C(\C)[C@@H](OC)C[C@@H]6CC[C@@H](C)[C@@](O)(O6)C(=O)C(=O)N6CCCC[C@H]6C(=O)O[C@H]([C@H](C)C[C@@H]6CC[C@@H](O)[C@H](OC)C6)C[C@@H](O)[C@H](C)/C=C(\C)[C@@H](O)[C@H]5OC)CC3)c(C(F)(F)F)c2)c(=O)n4C)cn1` [Example 13]: the IC50 was less than 3.16 nM with P-4E-BP1 (T37/46), less than 1 nM in the experiment on P-P70S6K (T389) and 3.16 to 31.6 nM with P-Akt (S473).

As to `COc1ccc(-c2ccc3ncc4c(c3c2)n(-c2ccc(N3CCN(c5ncc(CNC(=O)CCOCCOCCOCCOCCOCCOCCNC(=O)CON=C6[C@H](C)C[C@H](C)/C=C/C=C/C=C(\C)[C@@H](OC)C[C@@H]7CC[C@@H](C)[C@@](O)(O7)C(=O)C(=O)N7CCCC[C@H]7C(=O)O[C@H]([C@H](C)C[C@@H]7CC[C@@H](O)[C@H](OC)C7)C[C@@H](O)[C@H](C)/C=C(\C)[C@@H](O)[C@H]6OC)cn5)CC3)c(C(F)(F)F)c2)c(=O)n4C)cn1` [Example 14], the IC50 in the experiment on P-4E-BP1 (T37/46) was 3.16 to 31.6 nM; with P-P70S6K (T389) it was less than 1 nM; with P-Akt (S473), 31.6 to 1000 nM.
